Experimental data taken from US6635265B1, “Materials and methods useful for the control of insect larvae” (University of Florida Research Foundation, Inc., priority 1999, dated 2003).

Legend:
[1] = test system: fourth instar Heliothis virescens; assay: Feeding TMOF analogs to fourth instar H. virescens: larval weight; type: in vivo; details: for Weight Gain / Weight mg ± S.E.M. End: fourth instar larvae fed synthetic food and 0.8 mg of TMOF analogs for 5 days; for larval weight and trypsin biosynthesis (in words): fourth instar larvae fed TMOF analog peptides for 5 days
Description: In both cases a reduction in weight gain and trypsin inhibition was noted (Tables 3 and 4).
(§1) Larvae were fed for 5 to 14 days and larval weight and trypsin activity were measured at the end of the experimental periods. […] When first instar larvae were fed for 14 days on analogs 15 and 16 (Table 4), an 18% and 26% reduction in weight was observed.

[2] = test system: first instar H. virescens larvae; assay: Feeding of first instar H. virescens on TMOF analogs for 14 days; type: in vivo, Heliothis virescens; details: first instar larvae fed individually 1.6 µg of TMOF analogs for 14 days
[3] = test system: mosquito larvae; assay: Feeding TMOF and its analogue peptides to mosquito larvae (LD50); type: in vivo, Aedes aegypti; details: 100 μl microtiter plates, 7 days, diet of autoclaved yeast (1 mg/ml)
Excerpt: TMOF can traverse the gut epithelium, enter the hemolymph and bind a gut receptor (Borovsky, D. and F. Mahmood (1995) “Feeding the mosquito Aedes aegypti with TMOF and its analogs; effect on trypsin biosynthesis and egg development,” Regulatory Peptides 57:273-281.; Borovsky, D., C. A. Powell, J. K. Nayar, J. E. Blalock, and T. K. Hayes (1994) “Characterization and localization of mosquito-gut receptors for trypsin modulating oostatic factor using complementary peptide immunochemistry” FASEB J. 8:350-355.). […] This characteristic permits testing of TMOF and its analogs by feeding them to mosquito and other pest larvae. To determine whether truncated TMOF peptides have an effect on larval growth and development, a series of peptides were synthesized and tested by feeding them to mosquito larvae at concentrations of 0.5 to 5.0 mg/ml (Table 1). Individual, newly hatched Aedes aegypti larvae were maintained in separate microtiter wells on a diet of autoclaved yeast (1 mg/ml). The diet was supplemented with TMOF peptides (Table 1). An identical number of larvae which were maintained on yeast served as a control. […] All control groups survived and larval growth and development was normal. Since larvae swallow only a small portion of the yeast particles that adsorbed the peptides, it is assumed that approximately 1 to 20 ng are taken orally at the high concentrations.

[4] = test system: trypsin biosynthesis; assay: Feeding TMOF analogs to fourth instar H. virescens: gut trypsin biosynthesis ([3H]DFP); type: in vivo, Heliothis virescens; details: guts of fourth instar larvae after 5 days feeding on 0.8 mg of TMOF analogs
Description: as §1

[5] = test system: trypsin biosynthesis; assay: Injecting TMOF-R analogues into second instar Heliothis virescens: trypsin biosynthesis (BApNA); type: in vivo; details: second instar larvae, 24 hours after injection
Description: TMOF analogues (5 to 8 amino acids in length, and polymers of these analogues) in which Arg was added at the C-terminus were evaluated to determine their effect on larval growth and development. A series of analogues were synthesized and tested by feeding them to mosquito larvae at concentrations of (0.5 to 5.0 mg/ml; Table 4). Concentrations of 2.0 to 0.065 mg/ml were used to feed mosquito larvae and calculate the Lethal Dose at 50% mortality (LD50; Table 4) of the TMOF analogues. […] In both cases larval death and trypsin biosynthesis inhibition was noted (Table 4 and 5). […] The advantage of using short analogues connected by Arg is that they can be digested in the gut into short TMOF analogues that can penetrate the midgut much faster than longer analogues.
Individual second instar larvae of H. virescens were injected with TMOF-R analogues (10 to 0.25 μg per larva) and maintained in separate plastic cups on artificial diet. Twenty-four hours after the injections 3 groups of larvae (3 per group) were assayed for trypsin biosynthesis using BApNA (trypsin specific substrate; Table 5).

[6] = test system: first instar larvae S. exigua; assay: Inhibition of Spodoptera exigua larval growth by feeding of TMOF; type: in vivo
Description: The x-axis represents the TMOF concentration and the y-axis represents percentage of growth inhibition.
Individual, first instar larvae S. exigua were maintained in separate petri dishes and were fed on artificial diet blocks of 50 mg on which different concentrations of TMOF (0 to 100 μg) were adsorbed. Larvae were fed for 6 days and larval length was measured every 24 hours and compared with controls that were not fed TMOF. Each experiment was repeated 10 times.

For DYP (TMOF peptide) [24], the “Weight Gain” value [1] was 180.5 mg, the “Weight mg ± S.E.M. End” value [1] was 216.7 ± 13 mg and the “Number of Dead Larvae” value [2] was 1. For the same substance, the “Weight (mg) ± S.E.M.” value [2] was 149 ± 9 mg, the “Weight Reduction (%) ± S.E.M.” value [2] was 9 ± 0.5% and the “LD50 mM ± S.E.M.” value [3] was 4 1.27 ± 0.17 mM. The “Inhibition (% ± S.E.M.) of trypsin biosynthesis” value [4] was 14 ± 1.8% and the “Trypsin μg ± S.E.M.” value [4] was 2.2 ± 0.3 µg.

For YAPAP (TMOF peptide) [62], the “LD50 mM ± S.E.M.” value [3] was 3 0.54 ± 0.13 mM.

With YDAAP (TMOF peptide) [37] the “larval weight and trypsin biosynthesis (in words)” value [1] was “Reductions in larval weight and trypsin biosynthesis were observed”, the “Weight Gain” value [1] was 179 mg and the “Weight mg ± S.E.M. End” value [1] was 217 ± 9.5 mg. For the same substance, the “Number of Dead Larvae” value [2] was 0, the “Weight (mg) ± S.E.M.” value [2] was 133 ± 7 mg and the “Weight Reduction (%) ± S.E.M.” value [2] was 18 ± 1%. For the same substance, the “Weight Reduction (%) ± S.E.M.” value ([2]; listed as 15) was 18%, the “LD50 mM ± S.E.M.” value [3] was 3 1.0 ± 0.18 mM and the “Inhibition (% ± S.E.M.) of trypsin biosynthesis” value [4] was 17 ± 1.6%. For the same substance, the “Trypsin μg ± S.E.M.” value [4] was 2.1 ± 0.2 µg.

For YDPGP (TMOF peptide) [48], the “larval weight and trypsin biosynthesis (in words)” value [1] was “Reductions in larval weight and trypsin biosynthesis were observed”, the “Weight Gain” value [1] was 163.1 mg and the “Weight mg ± S.E.M. End” value [1] was 199.8 ± 11 mg. The “Number of Dead Larvae” value [2] was 2, the “Weight (mg) ± S.E.M.” value [2] was 153 ± 10 mg and the “Weight Reduction (%) ± S.E.M.” value [2] was 6 ± 0.4%. The “Weight Reduction (%) ± S.E.M.” value ([2]; listed as 16) was 26%, the “LD50 mM ± S.E.M.” value [3] was 5 1.1 ± 0.18 mM and the “Inhibition (% ± S.E.M.) of trypsin biosynthesis” value [4] was 17 ± 1%. For the same substance, the “Trypsin μg ± S.E.M.” value [4] was 2.1 ± 0.1 µg.

YDLAP (TMOF peptide) [41] was tested, and the “LD50 mM ± S.E.M.” value [3] was 3 0.6 ± 0.05 mM.

In the case of MPDYP5 (MPDYPPPPP; TMOF peptide) [29], the “LD50 mM ± S.E.M.” value [3] is reported as 3 > 3.0 mM.

FDPAP (TMOF peptide) [27] was tested, and the “LD50 mM ± S.E.M.” value [3] was 3 0.37 ± 0.15 mM.

With YAP (TMOF peptide) [34] the “LD50 mM ± S.E.M.” value [3] was 3 2.3 ± 0.5 mM.

For YDG (TMOF peptide) [40], the “LD50 mM ± S.E.M.” value [3] was 3 0.95 ± 0.11 mM.

In the case of YDP (TMOF peptide) [42], the “Weight Gain” value [1] is reported as 186.3 mg, the “Weight mg ± S.E.M. End” value [1] is reported as 223.4 ± 16 mg and the “Number of Dead Larvae” value [2] is reported as 0. For the same substance, the “Weight (mg) ± S.E.M.” value [2] was 157 ± 10 mg, the “Weight Reduction (%) ± S.E.M.” value [2] was 4 ± 0.2% and the “LD50 mM ± S.E.M.” value [3] was 5 2.3 ± 0.4 mM. The “Inhibition (% ± S.E.M.) of trypsin biosynthesis” value [4] was 19 ± 3.2% and the “Trypsin μg ± S.E.M.” value [4] was 2.1 ± 0.3 µg.

(DPAR)4 was tested, and the “Inhibition (% ± S.E.M.) of trypsin biosynthesis” value ([5]; 0.5 μg/injection) was 3 ± 0.3%, the “Inhibition (% ± S.E.M.) of trypsin biosynthesis” value ([5]; 1 μg/injection) was 35 ± 7% and the “Inhibition (% ± S.E.M.) of trypsin biosynthesis” value ([5]; 10 μg/injection) was 58 ± 36%.

“YDPAP6 (YDPAPPPPPP; listed as Aedes aegypti) [reference compound]” was tested, and the “larval growth (larval length) compared with controls” value ([6]; first instar S. exigua fed TMOF (0 to 100 μg) adsorbed on 50 mg artificial diet blocks for 6 days) was “did not grow as fast as the controls”, the “amount of TMOF fed at which maximum growth inhibition occurred” value ([6]; first instar S. exigua, 50 mg diet blocks, 6 days) was 100 µg and the “LD50 mM ± S.E.M.” value [3] was 3 0.2 ± 0.02 mM. The “Inhibition (% ± S.E.M.) of trypsin biosynthesis” value ([5]; 0.25 μg/injection) was 19.5 ± 0.7%, the “Inhibition (% ± S.E.M.) of trypsin biosynthesis” value ([5]; 0.5 μg/injection) was 11 ± 1% and the “Inhibition (% ± S.E.M.) of trypsin biosynthesis” value ([5]; 1 μg/injection) was 25 ± 2%. For the same substance, the “Inhibition (% ± S.E.M.) of trypsin biosynthesis” value ([5]; 10 μg/injection) was 56%.

With YDPAFR (TMOF-R analogue peptide) [58] the “Inhibition (% ± S.E.M.) of trypsin biosynthesis” value ([5]; 10 μg/injection) was 0 ± 0%.

In the case of AAP (TMOF peptide) [16], the “LD50 mM ± S.E.M.” value [3] is reported as 3 1.08 ± 0.07 mM.

In the case of YDPFP (TMOF peptide) [47], the “LD50 mM ± S.E.M.” value [3] is reported as 4 1.7 ± 0.4 mM.

In the case of ADAAP (TMOF peptide) [56], the “Weight Gain” value [1] is reported as 174.1 mg, the “Weight mg ± S.E.M. End” value [1] is reported as 209.7 ± 12 mg and the “Number of Dead Larvae” value [2] is reported as 0. The “Weight (mg) ± S.E.M.” value [2] was 141 ± 9 mg, the “Weight Reduction (%) ± S.E.M.” value [2] was 7 ± 0.4% and the “Inhibition (% ± S.E.M.) of trypsin biosynthesis” value [4] was 5 ± 0.6%. For the same substance, the “Trypsin μg ± S.E.M.” value [4] was 2.4 ± 0.3 µg.

With DPAR (TMOF-R analogue peptide) [60] the “Inhibition (% ± S.E.M.) of trypsin biosynthesis” value ([5]; 1 μg/injection) was 17 ± 2% and the “Inhibition (% ± S.E.M.) of trypsin biosynthesis” value ([5]; 10 μg/injection) was 100%.

In the case of YDPAF (TMOF peptide) [44], the “LD50 mM ± S.E.M.” value [3] is reported as 3 0.33 ± 0.2 mM.

With PAP (TMOF peptide) [31] the “LD50 mM ± S.E.M.” value [3] was 3 3.17 ± 0.14 mM.

PAA (TMOF peptide) [30] was tested, and the “LD50 mM ± S.E.M.” value [3] was 3 2.4 ± 0.34 mM.

With YDFAP (TMOF peptide) [39] the “Weight Gain” value [1] was 164 mg, the “Weight mg ± S.E.M. End” value [1] was 201 ± 12 mg and the “Number of Dead Larvae” value [2] was 1. The “Weight (mg) ± S.E.M.” value [2] was 121 ± 7 mg, the “Weight Reduction (%) ± S.E.M.” value [2] was 26 ± 1.5% and the “LD50 mM ± S.E.M.” value [3] was 3 0.74 ± 0.13 mM. The “Inhibition (% ± S.E.M.) of trypsin biosynthesis” value [4] was 19 ± 1.5% and the “Trypsin μg ± S.E.M.” value [4] was 2.1 ± 0.2 µg.

In the case of YEPAP (TMOF peptide) [50], the “LD50 mM ± S.E.M.” value [3] is reported as 3 0.35 ± 0.02 mM.

For YDPAPR (TMOF-R analogue peptide) [57], the “Inhibition (% ± S.E.M.) of trypsin biosynthesis” value ([5]; 0.25 μg/injection) was 11 ± 1%, the “Inhibition (% ± S.E.M.) of trypsin biosynthesis” value ([5]; 0.5 μg/injection) was 14 ± 1% and the “Inhibition (% ± S.E.M.) of trypsin biosynthesis” value ([5]; 1 μg/injection) was 31.5 ± 2%. For the same substance, the “Inhibition (% ± S.E.M.) of trypsin biosynthesis” value ([5]; 10 μg/injection) was 53 ± 25%.
